Results: US20030032000A1, “Method for analyzing cellular events” (Signature BioScience Inc., priority 2001, published 2003)

Columns and labels:
CHOk1 cells = experiment: MCS cellular activity assay in un-transfected CHOk1 wild-type cells; conditions: various concentrations of carbachol, signal integrated over 50 MHz to 1 GHz
calcium flux = experiment: MCS detection of calcium flux modifiers in wild-type and transfected cells; assay type: cell-based, Chinese Hampster
Method: Ability to detect other calcium flux modifies was tested using ionomycin (an ionophore).

Row | Structure (SMILES) | integrated MCS signal over time versus buffer (CHOk1 cells) | inhibition of ionomycin effect, MCS (calcium flux)
1 | C[N+](C)(C)CCOC(N)=O [carbachol] | essentially no change in signal over time | –
2 | C/C=C(/C)C(=O)O[C@H]1C(C)=C2[C@H]([C@@H]1OC(=O)CCCCCCC)[C@@](C)(OC(C)=O)C[C@H](OC(=O)CCC)[C@@]1(O)[C@H]2OC(=O)[C@@]1(C)O [thapsigargin] | – | inhibit ionomycin
